Experimental data from ChEMBL document CHEMBL1153751, “Biologically active tetranorditerpenoids from the fungus Sclerotinia homoeocarpa causal agent of dollar spot in turfgrass” (J Nat Prod, 2009).
Converted amounts (≈) assume the structure as drawn. The source made the active and inactive calls. The rule behind the calls is not given here.

How the values were obtained:
Agrostis stolonifera [1] = assay: Phytotoxicity against Agrostis stolonifera at 1 mg/ml; format: functional, organism-based
Lactuca sativa [2] = assay: Phytotoxicity against Lactuca sativa at 0.001 mg/ml; format: functional, organism-based
Vero [3] = assay: Cytotoxicity against african green monkey Vero cells after 48 hrs by neutral red dye staining; format: cell-based; details: Chlorocebus sabaeus
Agrostis stolonifera [4] = assay: Phytotoxicity against Agrostis stolonifera at 0.1 mg/ml; format: functional, organism-based
Lactuca sativa [5] = assay: Phytotoxicity against Lactuca sativa at 0.1 mg/ml; format: functional, organism-based
Plasmodium falciparum [6] = assay: microbe, parasite or virus in culture; details: W2, 72 h
SK-OV-3 [7] = assay: Cytotoxicity against human SKOV3 cells after 48 hrs by neutral red dye staining; format: functional, cell-based; details: SK-OV-3, 48 h
Lemna aequinoctialis = assay: Phytotoxicity against Lemna paucicostata after 7 days; format: functional, organism-based; details: 168 h, read-out: I50
BT-549 [8] = assay: Cytotoxicity against human BT549 cells after 48 hrs by neutral red dye staining; format: functional, cell-based; details: BT-549, 48 h
Agrostis stolonifera [9] = assay: Phytotoxicity against Agrostis stolonifera at 0.001 mg/ml; format: functional, organism-based
[10] = Cytotoxicity against pig LLC-PK11 cells after 48 hrs by neutral red dye staining; format: functional, cell-based; details: Sus scrofa, LLC-PK11, 48 h
KB [11] = assay: Cytotoxicity against human KB cells after 48 hrs by neutral red dye staining; format: functional, cell-based
Lactuca sativa [12] = assay: Phytotoxicity against Lactuca sativa at 1 mg/ml; format: functional, organism-based
SK-MEL [13] = assay: Cytotoxicity against human SK-MEL cells after 48 hrs by neutral red dye staining; format: functional, cell-based
Plasmodium falciparum [14] = assay: microbe, parasite or virus in culture; details: D6, 72 h
Lactuca sativa [15] = assay: Phytotoxicity against Lactuca sativa at 0.01 mg/ml; format: functional, organism-based
Vero [16] = assay: Cytotoxicity against african green monkey Vero cells at 4760 ng/ml after 48 hrs by neutral red dye staining; format: cell-based; details: Chlorocebus sabaeus
KB [17] = assay: Cytotoxicity against human KB cells at 10 ug/ml after 48 hrs by neutral red dye staining; format: functional, cell-based
SK-OV-3 [18] = assay: Cytotoxicity against human SKOV3 cells at 10 ug/ml after 48 hrs by neutral red dye staining; format: functional, cell-based
Plasmodium falciparum [19] = assay: Antiplasmodial activity against chloroquine-resistant Plasmodium falciparum W2 assessed as LDH activity at 4760 ng/ml after 72 hrs by malstat reagent method; format: functional, organism-based
BT-549 [20] = assay: Cytotoxicity against human BT549 cells at 10 ug/ml after 48 hrs by neutral red dye staining; format: functional, cell-based
[21] = Cytotoxicity against pig LLC-PK11 cells at 10 ug/ml after 48 hrs by neutral red dye staining; format: functional, cell-based, Sus scrofa
Plasmodium falciparum [22] = assay: Antiplasmodial activity against chloroquine-sensitive Plasmodium falciparum D6 assessed as LDH activity at 4760 ng/ml after 72 hrs by malstat reagent method; format: functional, organism-based
SK-MEL [23] = assay: Cytotoxicity against human SK-MEL cells at 10 ug/ml after 48 hrs by neutral red dye staining; format: functional, cell-based
Agrostis stolonifera [24] = assay: Phytotoxicity against Agrostis stolonifera at 0.01 mg/ml; format: functional, organism-based

Structure (SMILES)	Activity (Agrostis stolonifera [1])	Activity (Lactuca sativa [2])	IC50 (Vero [3])	Activity (Agrostis stolonifera [4])	Activity (Lactuca sativa [5])	IC50 (Plasmodium falciparum [6])	IC50 (SK-OV-3 [7])	IC50 (Lemna aequinoctialis)	IC50 (BT-549 [8])	Activity (Agrostis stolonifera [9])	IC50 [10]	IC50 (KB [11])	Activity (Lactuca sativa [12])	IC50 (SK-MEL [13])	IC50 (Plasmodium falciparum [14])	Activity (Lactuca sativa [15])	inhibition (INH) (Vero [16])	inhibition (KB [17])	inhibition (SK-OV-3 [18])	other results
C[C@@]12C=CC[C@]3(C)C(=O)O[C@H](C=C4COC(=O)C=C41)C23 (some centres not stated)	Active	inactive	3 µg/mL (≈ 11 µM)	Active	Active	0.13 µg/mL (≈ 0.477 µM)	6 µg/mL (≈ 22 µM)	730 nM	9.6 µg/mL (≈ 35.3 µM)	inactive	10 µg/mL (≈ 36.7 µM)	4.3 µg/mL (≈ 15.8 µM)	Active	2.3 µg/mL (≈ 8.45 µM)	–	–	–	–	–	–
C[C@]12C=C[C@H](O)[C@]3(C)C(=O)O[C@@H](C13)[C@H]1O[C@]13COC(=O)C=C32 (some centres not stated)	Active	–	1.5 µg/mL (≈ 4.93 µM)	Active	Active	0.6 µg/mL (≈ 1.97 µM)	8 µg/mL (≈ 26.3 µM)	390 nM	4.8 µg/mL (≈ 15.8 µM)	–	2.8 µg/mL (≈ 9.2 µM)	4.4 µg/mL (≈ 14.5 µM)	Active	0.58 µg/mL (≈ 1.91 µM)	0.75 µg/mL (≈ 2.46 µM)	Active	–	–	–	–
C[C@@]12C=C[C@H](O)[C@]3(C)C(=O)O[C@H](C=C4COC(=O)C=C41)C23 (some centres not stated)	Active	inactive	0.95 µg/mL (≈ 3.3 µM)	Active	Active	0.032 µg/mL (≈ 0.111 µM)	1.1 µg/mL (≈ 3.82 µM)	790 nM	1.2 µg/mL (≈ 4.16 µM)	inactive	1.1 µg/mL (≈ 3.82 µM)	0.6 µg/mL (≈ 2.08 µM)	Active	0.12 µg/mL (≈ 0.416 µM)	–	Active	–	–	–	–
CCN(CC)CCCC(C)Nc1ccnc2cc(Cl)ccc12 (configuration not stated) [CHLOROQUINE]	–	–	–	–	–	–	–	–	–	–	–	–	–	–	–	–	Not Active	–	–	–
C[C@@]12CC[C@@H](O)[C@]3(C)C4=CC(=O)OCC4=C[C@@H](OC1=O)C23 (some centres not stated)	Active	inactive	4.76 µg/mL (≈ 16.4 µM)	Active	Active	–	> 10 µg/mL	547000 nM	> 10 µg/mL	inactive	> 10 µg/mL	> 10 µg/mL	Active	3.3 µg/mL (≈ 11.4 µM)	–	–	–	–	–	–
C[C@]12C=CC[C@]3(C)C(=O)O[C@@H](C13)[C@H]1O[C@]13COC(=O)C=C32 (some centres not stated)	Active	inactive	–	Active	Active	2.3 µg/mL (≈ 7.98 µM)	–	650 nM	> 10 µg/mL	–	> 10 µg/mL	–	Active	2.8 µg/mL (≈ 9.71 µM)	2.3 µg/mL (≈ 7.98 µM)	–	Not Active	inactive	inactive	–
C[C@@]12C[C@@H](O)C[C@]3(C)C4=CC(=O)OCC4=C[C@@H](OC1=O)C23 (some centres not stated)	Active	–	1 µg/mL (≈ 3.44 µM)	Active	Active	–	3.2 µg/mL (≈ 11 µM)	9090 nM	4.7 µg/mL (≈ 16.2 µM)	–	1.2 µg/mL (≈ 4.13 µM)	2.1 µg/mL (≈ 7.23 µM)	Active	0.41 µg/mL (≈ 1.41 µM)	–	–	–	–	–	–
C[C@@]12CC[C@@H](O)[C@]3(C)C4=CC(=O)OC[C@]45O[C@@H]5[C@@H](OC1=O)C23 (some centres not stated)	Active	–	–	Active	Active	–	–	6420 nM	–	inactive	–	–	Active	10 µg/mL (≈ 32.6 µM)	–	–	Not Active	inactive	inactive	inhibition (Plasmodium falciparum [19]): inactive; inhibition (BT-549 [20]): inactive; Cytotoxicity at 10 ug/ml [21]: Not Active; inhibition (Plasmodium falciparum [22]): inactive
C[C@]12CC[C@@H](O)[C@]3(C)C(=O)O[C@@H](C13)[C@H]1O[C@]13COC(=O)C=C32 (some centres not stated)	Active	inactive	–	–	–	–	–	–	–	inactive	–	–	Active	–	–	inactive	Not Active	inactive	inactive	inhibition (Plasmodium falciparum [19]): inactive; inhibition (BT-549 [20]): inactive; Cytotoxicity at 10 ug/ml [21]: Not Active; inhibition (Plasmodium falciparum [22]): inactive; inhibition (SK-MEL [23]): inactive; Activity (Agrostis stolonifera [24]): inactive
C[C@@]12CCC[C@]3(C)C4=CC(=O)OCC4=C[C@@H](OC1=O)C23 (some centres not stated)	Active	inactive	3.7 µg/mL (≈ 13.5 µM)	Active	Active	–	> 10 µg/mL	950 nM	> 10 µg/mL	inactive	5.4 µg/mL (≈ 19.7 µM)	4.2 µg/mL (≈ 15.3 µM)	Active	1.1 µg/mL (≈ 4.01 µM)	0.3 µg/mL (≈ 1.09 µM)	–	–	–	–	–
C[C@]12CCC[C@](C)(C(=O)O)[C@@H]1C=C[C@]1(O)COC(=O)C[C@H]21 [OIDIOLACTONE E]	Active	inactive	1.7 µg/mL (≈ 5.78 µM)	–	–	0.19 µg/mL (≈ 0.645 µM)	6.3 µg/mL (≈ 21.4 µM)	–	9 µg/mL (≈ 30.6 µM)	inactive	4.8 µg/mL (≈ 16.3 µM)	4.5 µg/mL (≈ 15.3 µM)	Active	0.72 µg/mL (≈ 2.45 µM)	0.25 µg/mL (≈ 0.849 µM)	–	–	–	–	–
C[C@@H]1CC[C@H]2[C@@H](C)C(=O)O[C@@H]3O[C@@]4(C)CC[C@@H]1[C@]32OO4 [ARTEMISININ]	–	–	–	–	–	0.0038 µg/mL (≈ 0.0135 µM)	–	–	–	–	–	–	–	–	0.0047 µg/mL (≈ 0.0166 µM)	–	Not Active	–	–	–
C=C1C(O)CC2[C@](C)(CCC[C@]2(C)C(=O)O)C1CC(=O)O (some centres not stated)	inactive	inactive	–	inactive	inactive	–	–	–	–	inactive	–	–	–	–	–	inactive	Not Active	inactive	inactive	inhibition (Plasmodium falciparum [19]): inactive; inhibition (BT-549 [20]): inactive; Cytotoxicity at 10 ug/ml [21]: Not Active; inhibition (Plasmodium falciparum [22]): inactive; inhibition (SK-MEL [23]): inactive; Activity (Agrostis stolonifera [24]): inactive
C[C@@]12C[C@@H](O)C[C@]3(C)C4=CC(=O)OC[C@]45O[C@@H]5[C@@H](OC1=O)C23 (some centres not stated)	Active	inactive	3.3 µg/mL (≈ 10.8 µM)	Active	Active	–	10 µg/mL (≈ 32.6 µM)	3320 nM	10 µg/mL (≈ 32.6 µM)	inactive	4.2 µg/mL (≈ 13.7 µM)	6.8 µg/mL (≈ 22.2 µM)	Active	1.1 µg/mL (≈ 3.59 µM)	0.74 µg/mL (≈ 2.42 µM)	–	–	–	–	–
C[C@@]12CC[C@@H](O)[C@]3(C)C(=O)O[C@H](C=C4COC(=O)C=C41)C23 (some centres not stated)	Active	inactive	–	–	–	–	–	–	–	inactive	–	–	Active	–	–	inactive	Not Active	inactive	inactive	inhibition (Plasmodium falciparum [19]): inactive; inhibition (BT-549 [20]): inactive; Cytotoxicity at 10 ug/ml [21]: Not Active; inhibition (Plasmodium falciparum [22]): inactive; inhibition (SK-MEL [23]): inactive; Activity (Agrostis stolonifera [24]): inactive
